Reference: PMC10746543, “Design principles for cyclin K molecular glue degraders” (Nature Chemical Biology, 2023)
Where “and” joins values, the source holds several entries; their conditions need not be identical. Equal entries are not always repeated. Where two headings read alike, the source gives them in different places.

Experiments:
HEK293T cells = assay: Drug sensitivity assay (CellTiter-Glo viability) with or without MLN4924 pretreatment; format: cell-based, human; conditions: Supplementary Table 2; for EC50: Homo sapiens, HEK-293T, HEK293T viability, 72 h, compound alone, read-out: Cellular assays EC50; for Toxicity rescue: MLN4924-mediated cytotoxicity rescue, 10 µM used where n.d.
Protocol: HEK293T–Cas9 cells were resuspended at 0.15 × 10^6 ml^−1 treated with DMSO or 100 nM MLN4924 and plated on 384-well plates. After 2 h, the indicated drugs were dispensed with a D300 digital dispenser (Tecan). After 3 days of drug exposure, cell viability was assessed using the CellTiter-Glo luminescent assay (Promega, G7572) on an CLARIOstar Plus, MARS 3.4 (BMG LabTech). Cell viabilities were calculated relative to DMSO controls.

[1] = tested on: cyclin K–eGFP degradation reporter; assay: Cyclin K reporter stability analysis (dual-color cyclin K–eGFP reporter); format: cell-based, human
Protocol: HEK293T–Cas9 cells expressing the cyclin K–eGFP degradation reporter were resuspended at 1 × 10^6 ml^−1 and 50 µl of cell suspension was seeded in non-cell-culture-treated 384-well plates. Shortly after, cells were treated with drug or DMSO for 5 h. […] The fluorescent signal was quantified by flow cytometry (LSRFortessa flow cytometer, BD Biosciences). Using FlowJo (flow cytometry analysis software, BD Biosciences), the geometric mean of the eGFP and mCherry fluorescent signal for round and mCherry-positive cells was calculated. The ratio of eGFP to mCherry was normalized to the average of three DMSO-treated controls.

CDK12–cyclin K and DDB1 = biological target: T1, CDK12–cyclin K and DDB1 (Homo sapiens, UniProt Q16531+Q9NYV4, K965R); assay: TR-FRET ternary complex formation assay (compound titration); format: binding; conditions: for TR-FRET signal at compound concentration: replicate titrations
T1 construct: His6–CDK12 (a.a. 713–1,052); full-length or beta-propeller B domain deletion (ΔBPB: a.a. 396–705 deleted) constructs of His6–DDB1ΔBPB, StrepII–Avi–DDB1, or His6–Spy–DDB1; made in house; host or cells: Trichoplusia ni High Five insect cells (baculovirus)
T1 sequence (Q9NYV4 713-1052 K965R): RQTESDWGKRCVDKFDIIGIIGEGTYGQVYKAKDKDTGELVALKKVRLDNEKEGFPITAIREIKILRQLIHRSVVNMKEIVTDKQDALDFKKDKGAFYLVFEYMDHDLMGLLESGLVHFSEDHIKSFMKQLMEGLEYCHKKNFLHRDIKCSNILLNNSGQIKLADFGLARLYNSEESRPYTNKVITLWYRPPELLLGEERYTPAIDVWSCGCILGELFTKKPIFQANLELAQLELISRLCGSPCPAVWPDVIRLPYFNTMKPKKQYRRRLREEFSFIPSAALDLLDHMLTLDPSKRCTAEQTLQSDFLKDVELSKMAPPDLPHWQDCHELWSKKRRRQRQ
T1 sequence (O75909 1-267 partner): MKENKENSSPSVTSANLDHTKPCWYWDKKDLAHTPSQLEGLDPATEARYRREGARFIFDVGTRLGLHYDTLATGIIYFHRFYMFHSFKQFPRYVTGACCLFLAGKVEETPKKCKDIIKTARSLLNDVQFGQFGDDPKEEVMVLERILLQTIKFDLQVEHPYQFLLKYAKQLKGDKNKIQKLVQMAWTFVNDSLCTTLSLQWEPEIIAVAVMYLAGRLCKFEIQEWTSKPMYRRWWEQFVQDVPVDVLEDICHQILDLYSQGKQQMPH
T1 sequence (Q16531 whole entry): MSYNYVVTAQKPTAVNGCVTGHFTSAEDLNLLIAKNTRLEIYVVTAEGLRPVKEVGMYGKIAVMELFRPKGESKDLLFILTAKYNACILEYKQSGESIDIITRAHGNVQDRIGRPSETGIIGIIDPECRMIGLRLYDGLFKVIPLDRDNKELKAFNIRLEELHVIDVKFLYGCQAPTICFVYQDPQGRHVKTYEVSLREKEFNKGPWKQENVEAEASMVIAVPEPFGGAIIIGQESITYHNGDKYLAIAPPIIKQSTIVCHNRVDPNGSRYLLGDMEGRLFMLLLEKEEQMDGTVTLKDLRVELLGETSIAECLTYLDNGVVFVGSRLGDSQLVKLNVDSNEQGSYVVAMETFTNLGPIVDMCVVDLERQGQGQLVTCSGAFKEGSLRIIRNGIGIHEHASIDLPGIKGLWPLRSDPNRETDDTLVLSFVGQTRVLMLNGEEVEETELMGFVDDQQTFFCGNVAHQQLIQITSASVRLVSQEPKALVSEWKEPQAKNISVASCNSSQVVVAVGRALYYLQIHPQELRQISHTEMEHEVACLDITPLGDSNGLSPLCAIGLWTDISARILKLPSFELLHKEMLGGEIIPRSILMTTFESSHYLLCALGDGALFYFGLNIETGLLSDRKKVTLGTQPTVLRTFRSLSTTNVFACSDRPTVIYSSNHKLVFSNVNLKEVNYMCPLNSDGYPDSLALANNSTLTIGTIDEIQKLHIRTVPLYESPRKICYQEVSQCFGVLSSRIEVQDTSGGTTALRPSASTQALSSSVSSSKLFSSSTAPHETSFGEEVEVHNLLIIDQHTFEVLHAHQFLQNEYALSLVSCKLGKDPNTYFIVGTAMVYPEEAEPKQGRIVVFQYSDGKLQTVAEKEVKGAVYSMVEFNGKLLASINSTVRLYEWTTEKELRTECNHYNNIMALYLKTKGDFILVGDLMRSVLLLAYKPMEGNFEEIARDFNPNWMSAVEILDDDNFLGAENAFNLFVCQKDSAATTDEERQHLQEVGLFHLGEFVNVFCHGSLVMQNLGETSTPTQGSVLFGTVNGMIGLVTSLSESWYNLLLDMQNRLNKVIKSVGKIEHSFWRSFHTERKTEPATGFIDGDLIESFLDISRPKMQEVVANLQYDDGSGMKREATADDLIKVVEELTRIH
Text: A 70 μs delay was employed to reduce background fluorescence. The TR-FRET signal was obtained through calculating the ratio of 520 nm to 490 nm fluorescence, and Prism 9 (GraphPad) was used for further data analysis.

[2] = Supplementary Table 2, HEK293T cycK-eGFP reporter, 5 h, read-out: Cellular assays DC50
[3] = Supplementary Table 2, read-out: TR-FRET EC50 TR-FRET
[4] = in vitro complex formation, 50 nM CDK12–cyclin K, 100 nM DDB1, text and figures, read-out: TR-FRET EC50
[5] = sheet MOESM7, read-out: log TR-FRET EC50 (converted)
[6] = compound concentration 79.2001 nM
[7] = compound concentration 158.4 nM
[8] = compound concentration 309.6 nM
[9] = compound concentration 626.401 nM
[10] = compound concentration 1252.8 nM
[11] = compound concentration 9936.01 nM
[12] = compound concentration 20016 nM

SMILES	EC50 (HEK293T cells)	Toxicity rescue (HEK293T cells)	DC50 [1, 2]	EC50 (CDK12–cyclin K and DDB1; [3])	EC50 (CDK12–cyclin K and DDB1; [4])	EC50 (CDK12–cyclin K and DDB1; [5])	TR-FRET signal at compound concentration (CDK12–cyclin K and DDB1; compound concentration 4.68 nM)	TR-FRET signal at compound concentration (CDK12–cyclin K and DDB1; compound concentration 21.6 nM)	TR-FRET signal at compound concentration (CDK12–cyclin K and DDB1; compound concentration 36 nM)	TR-FRET signal at compound concentration (CDK12–cyclin K and DDB1; [6])	TR-FRET signal at compound concentration (CDK12–cyclin K and DDB1; [7])	TR-FRET signal at compound concentration (CDK12–cyclin K and DDB1; [8])	TR-FRET signal at compound concentration (CDK12–cyclin K and DDB1; [9])	TR-FRET signal at compound concentration (CDK12–cyclin K and DDB1; [10])	TR-FRET signal at compound concentration (CDK12–cyclin K and DDB1; compound concentration 2448 nM)	TR-FRET signal at compound concentration (CDK12–cyclin K and DDB1; [11])	TR-FRET signal at compound concentration (CDK12–cyclin K and DDB1; [12])	TR-FRET signal, individual replicate (CDK12–cyclin K and DDB1; compound concentration 4.68 nM)	TR-FRET signal, individual replicate (CDK12–cyclin K and DDB1; compound concentration 21.6 nM)	TR-FRET signal, individual replicate (CDK12–cyclin K and DDB1; compound concentration 36 nM)	other results
CC[C@H](CO)Nc1nc(Nc2ccc(-c3ccccn3)cc2)c2ncn(C(C)C)c2n1 [DRF053, reference compound]	1310 nM	387%	> 10000 nM	704 nM	704 ± 108 nM	704 nM	–	–	–	–	–	–	–	–	–	–	–	–	–	–	TR-FRET signal at compound concentration 4.68 nM (CDK12–cyclin K and DDB1; compound concentration 4.68 nM, raw replicate titration data): 0.2134 and 0.2299 and 0.1361 and 0.1347; TR-FRET signal at compound concentration 21.6 nM (CDK12–cyclin K and DDB1; compound concentration 21.6 nM, raw replicate titration data): 0.2243 and 0.2471 and 0.1497 and 0.153; TR-FRET signal at compound concentration 36 nM (CDK12–cyclin K and DDB1; compound concentration 36 nM, raw replicate titration data): 0.2585 and 0.3171 and 0.1771 and 0.1787; TR-FRET signal at compound concentration 79.2001 nM (CDK12–cyclin K and DDB1; compound concentration 79.2001 nM, raw replicate titration data): 0.3449 and 0.4117 and 0.2284 and 0.2341; TR-FRET signal at compound concentration 158.4 nM (CDK12–cyclin K and DDB1; compound concentration 158.4 nM, raw replicate titration data): 0.4712 and 0.5868 and 0.3097 and 0.3219; TR-FRET signal at compound concentration 309.6 nM (CDK12–cyclin K and DDB1; compound concentration 309.6 nM, raw replicate titration data): 0.6548 and 0.8142 and 0.4579 and 0.474; TR-FRET signal at compound concentration 626.401 nM (CDK12–cyclin K and DDB1; compound concentration 626.401 nM, raw replicate titration data): 0.9256 and 1.1545 and 0.6903 and 0.7002; TR-FRET signal at compound concentration 1252.8 nM (CDK12–cyclin K and DDB1; compound concentration 1252.8 nM, raw replicate titration data): 1.214 and 1.445 and 0.9334 and 0.9779; TR-FRET signal at compound concentration 2448 nM (CDK12–cyclin K and DDB1; compound concentration 2448 nM, raw replicate titration data): 1.442 and 1.672 and 1.232 and 1.263; TR-FRET signal at compound concentration 9936.01 nM (CDK12–cyclin K and DDB1; compound concentration 9936.01 nM, raw replicate titration data): 1.602 and 1.881 and 1.44 and 1.453; TR-FRET signal at compound concentration 20016 nM (CDK12–cyclin K and DDB1; compound concentration 20016 nM, raw replicate titration data): 1.655 and 1.896 and 1.497 and 1.485
CC[C@H](CO)Nc1nc(NCCCCCc2ccccc2)c2ncn(C(C)C)c2n1 [DS02]	> 10000 nM	0%	–	–	285 ± 19 nM	285 nM	0.1674 and 0.1915	0.2669 and 0.3147	0.462 and 0.5388	0.7422 and 0.8389	1.142 and 1.242	1.648 and 1.83	2.134 and 2.344	2.523 and 2.691	2.757 and 2.986	2.985 and 3.212	3.04 and 3.2335	–	–	–	DC50 ([1]; source data sheet correlations, read-out: DC50): 1780 nM; fold lower affinity than DS11 (CDK12–cyclin K and DDB1; TR-FRET complex formation): 5-10 fold; EC50 (CDK12–cyclin K and DDB1; source data sheet correlations, read-out: TR-FRET EC50): 285 nM
CCCCc1ccc(CNc2nc(N[C@H](CC)CO)nc3c2ncn3C(C)C)cc1 [DS03]	> 10000 nM	0%	> 10000 nM	185 nM	185 ± 22 nM	185 nM	–	–	–	–	–	–	–	–	–	–	–	0.1665 and 0.1912	0.2604 and 0.3178	0.4113 and 0.4843	TR-FRET signal, individual replicate (CDK12–cyclin K and DDB1; [6]): 0.6704 and 0.7869; TR-FRET signal, individual replicate (CDK12–cyclin K and DDB1; [7]): 0.9573 and 1.072; TR-FRET signal, individual replicate (CDK12–cyclin K and DDB1; [8]): 1.2282 and 1.396; TR-FRET signal, individual replicate (CDK12–cyclin K and DDB1; [9]): 1.549 and 1.7468; TR-FRET signal, individual replicate (CDK12–cyclin K and DDB1; [10]): 1.782 and 2.014; TR-FRET signal, individual replicate (CDK12–cyclin K and DDB1; compound concentration 2448 nM): 1.858 and 2.0804; TR-FRET signal, individual replicate (CDK12–cyclin K and DDB1; [11]): 1.8943 and 2.138; TR-FRET signal, individual replicate (CDK12–cyclin K and DDB1; [12]): 1.837 and 2.0323
CC[C@H](CO)Nc1nc(NCc2ccc(-c3ccc(-c4ccccc4)cc3)cc2)c2ncn(C(C)C)c2n1 [DS04]	> 10000 nM	0%	> 10000 nM	–	–	–	0.1371 and 0.1443	0.1368 and 0.1484	0.135 and 0.1532	0.1341 and 0.1519	0.132 and 0.1491	0.1322 and 0.1487	0.1292 and 0.1438	0.1234 and 0.1372	0.1186 and 0.1335	0.1139 and 0.1272	0.1066 and 0.1169	–	–	–	DDB1–CDK12 complex formation, result in words (CDK12–cyclin K and DDB1; in vitro TR-FRET): abolished binding
CC[C@H](CO)Nc1nc(NCc2ccc(-c3ccc4ccccc4c3)cc2)c2ncn(C(C)C)c2n1 [DS05]	> 10000 nM	0%	> 10000 nM	935 nM	936 ± 112 nM	935 nM	0.139 and 0.157	0.1423 and 0.1615	0.1531 and 0.1764	0.1718 and 0.1914	0.1925 and 0.2133	0.2424 and 0.278	0.3125 and 0.3604	0.4172 and 0.4741	0.5249 and 0.5984	0.656 and 0.7191	0.5857 and 0.628	–	–	–	–
CCCCCCCCNc1nc(N[C@H](CC)CO)nc2c1ncn2C(C)C [DS06]	> 10000 nM	0%	> 10000 nM	–	1160 nM	1160 nM	–	–	–	–	–	–	–	–	–	–	–	0.1399 and 0.1627 and 0.1459 and 0.1432	0.173 and 0.1922 and 0.1723 and 0.1754	0.2228 and 0.253 and 0.2242 and 0.2297	TR-FRET signal (CDK12–cyclin K and DDB1; compound concentration 4.68 nM): 0.1399 and 0.1627 and 0.1459 and 0.1432; TR-FRET signal (CDK12–cyclin K and DDB1; compound concentration 21.6 nM): 0.173 and 0.1922 and 0.1723 and 0.1754; TR-FRET signal (CDK12–cyclin K and DDB1; compound concentration 36 nM): 0.2228 and 0.253 and 0.2242 and 0.2297; TR-FRET signal (CDK12–cyclin K and DDB1; [6]): 0.3087 and 0.3318 and 0.3304 and 0.3159; TR-FRET signal, individual replicate (CDK12–cyclin K and DDB1; [6]): 0.3087 and 0.3318 and 0.3304 and 0.3159; TR-FRET signal (CDK12–cyclin K and DDB1; [7]): 0.4597 and 0.4851 and 0.4992 and 0.3486; TR-FRET signal, individual replicate (CDK12–cyclin K and DDB1; [7]): 0.4597 and 0.4851 and 0.4992 and 0.3486; TR-FRET signal (CDK12–cyclin K and DDB1; [8]): 0.6961 and 0.632 and 0.7161 and 0.7436; TR-FRET signal, individual replicate (CDK12–cyclin K and DDB1; [8]): 0.6961 and 0.632 and 0.7161 and 0.7436; TR-FRET signal (CDK12–cyclin K and DDB1; [9]): 0.9481 and 0.8335 and 0.9996 and 0.9936; TR-FRET signal, individual replicate (CDK12–cyclin K and DDB1; [9]): 0.9481 and 0.8335 and 0.9996 and 0.9936; TR-FRET signal (CDK12–cyclin K and DDB1; [10]): 1.125 and 0.8632 and 1.358 and 1.356; TR-FRET signal, individual replicate (CDK12–cyclin K and DDB1; [10]): 1.125 and 0.8632 and 1.358 and 1.356; TR-FRET signal (CDK12–cyclin K and DDB1; compound concentration 2448 nM): 1.642 and 1.809 and 1.711 and 1.743; TR-FRET signal, individual replicate (CDK12–cyclin K and DDB1; compound concentration 2448 nM): 1.642 and 1.809 and 1.711 and 1.743; TR-FRET signal (CDK12–cyclin K and DDB1; [11]): 2.02 and 2.174 and 2.025 and 2.055; TR-FRET signal, individual replicate (CDK12–cyclin K and DDB1; [11]): 2.02 and 2.174 and 2.025 and 2.055; TR-FRET signal (CDK12–cyclin K and DDB1; [12]): 2.092 and 2.228 and 2.285 and 2.284; TR-FRET signal, individual replicate (CDK12–cyclin K and DDB1; [12]): 2.092 and 2.228 and 2.285 and 2.284
